Here are results for 25 compounds from patent US20120245161A1 (SANOFI, priority 2009, published 2012).

Structures are written as SMILES. Where a name gives a salt, the structure may show the parent alone.

T1 sequence (P20231 31-275): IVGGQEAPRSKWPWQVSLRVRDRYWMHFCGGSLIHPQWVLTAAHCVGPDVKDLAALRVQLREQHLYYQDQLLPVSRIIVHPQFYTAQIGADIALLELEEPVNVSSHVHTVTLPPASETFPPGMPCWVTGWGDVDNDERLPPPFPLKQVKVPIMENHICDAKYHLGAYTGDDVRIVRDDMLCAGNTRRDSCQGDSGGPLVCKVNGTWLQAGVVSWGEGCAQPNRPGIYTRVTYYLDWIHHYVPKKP

One assay has as its target T1, recombinant human beta tryptase (Homo sapiens, UniProt P20231).
T1 construct: made in house; host or cells: yeast cells
The assay can be described thus: beta-Tryptase inhibition, chromogenic enzyme assay (substrate S2366, read at 405 nm). Type of assay: biochemical. Particulars: Ki calculated from IC50: Ki=IC50/(1+[Substrate]/Km); 0.5 mM substrate, room temperature; read-out: Tryptase Ki. The source says:
Inhibition of this catalytic activity may be measured by the in vitro enzyme assay and the cellular assay.
Tryptase inhibition activity is confirmed using either isolated human lung tryptase or recombinant human beta tryptase expressed in yeast cells. Essentially equivalent results are obtained using isolated native enzyme or the expressed enzyme. The assay procedure employs a 96 well microplate (Costar 3590) using L-pyroglutamyl-L-prolyl-L-arginine-para-nitroanilide (S2366: Quadratech) as substrate (essentially as described by McEuen et. al. Biochem Pharm, 1996, 52, pages 331-340). Assays are performed at room temperature using 0.5 mM substrate (2×Km) and the microplate is read on a microplate reader (Beckman Biomek Plate reader) at 405 nm wavelength.
Materials and Methods for Tryptase primary screen (Chromogenic assay)
S2366 (Stock solutions of 2.5 mM).
Purified recombinant beta Tryptase Stocks of 310 μg/mL. Protocol (Single point determination) • Add 60 μL of diluted substrate (final concentration of 500 μM in assay buffer) to each well • Add compound in duplicates, final concentration of 20 volume 20 • Add enzyme at a final concentration of 50 ng/mL in a volume of 20 • Total volume for each well is 100 • Agitate briefly to mix and incubate at room temp in the dark for 30 minutes • Read absorbencies at […] Each plate has the following controls: • Totals: 60 μL of substrate, 20 μL of buffer (with 0.2% final concentration of DMSO), • 20 μL of enzyme Non-specific: 60 μL of substrate, 40 μL of buffer (with 0.2% DMSO) Totals: 60 μL of substrate, 20 μL of buffer (No DMSO), 20 μL of enzyme Non-specific: 60 μL of substrate, 40 μL of buffer (No DMSO) Protocol (IC50 and Ki determination)
The protocol is essentially the same as above except that the compound is added in duplicates at the following final concentrations: 0.01, 0.03, 0.1, 0.3, 1, 3, 10 μM (All dilutions carried out manually). For every assay, whether single point or IC50 determination, a standard compound is used to derive IC50 for comparison. From the IC50 value, the Ki can be calculated using the following formula: Ki=IC50/(1+[Substrate]/Km).
On to `COCCn1cc(C(=O)N2CCC(c3cc(CN)ccc3F)CC2)c2c(-c3ccncc3)cccc21` [Example 56, [4-(5-Aminomethyl-2-fluoro-phenyl)-piperidin-1-yl]-[1-(2-methoxy-ethyl)-4-pyridin-4-yl-1H-indol-3-yl]-methanone], for which the inhibition constant (Ki) (as a rule, the dissociation constant of the complex between target and ligand, obtained from inhibition or displacement) is 9 nM.
With `COCCn1cc(C(=O)N2CCC(c3cc(CN)ccc3F)CC2)c2c(-c3cncnc3)cccc21` [Example 61, [4-(5-Aminomethyl-2-fluoro-phenyl)-piperidin-1-yl]-[1-(2-methoxy-ethyl)-4-pyrimidin-5-yl-1H-indol-3-yl]-methanone dihydrochloride], the inhibitory constant (Ki) was 17 nM.
`Cc1cccc2c(C(=O)N3CCC(c4cc(CN)ccc4F)CC3)cn(CCn3ccnc3)c12` [Example 62, [4-(5-Aminomethyl-2-fluoro-phenyl)-piperidin-1-yl]-[1-(2-imidazol-1-yl-ethyl)-7-methyl-1H-indol-3-yl]-methanone dihydrochloride]: the Ki was 22 nM.
For the compound `COCCn1cc(C(=O)N2CCC(c3cc(CN)ccc3F)CC2)c2c(-c3cncc(Cl)c3)cccc21` [Example 65, [4-(5-Aminomethyl-2-fluoro-phenyl)-piperidin-1-yl]-[4-(5-chloro-pyridin-3-yl)-1-(2-methoxy-ethyl)-1H-indol-3-yl]-methanone dihydrochloride], the inhibition constant (Ki) is 11 nM.
As for `COCCn1cc(C(=O)N2CCC(c3cc(CN)ccc3F)CC2)c2c(-c3cccnc3)cccc21` [Example 73, [4-(5-Aminomethyl-2-fluoro-phenyl)-piperidin-1-yl]-[1-(2-methoxy-ethyl)-4-pyridin-3-yl-1H-indol-3-yl]-methanone dihydrochloride], the inhibition constant (Ki) was 7 nM.
Regarding `COCCn1cc(C(=O)N2CCC(c3cc(CN)ccc3F)CC2)c2c(-c3ccccn3)cccc21` [Example 74, [4-(5-Aminomethyl-2-fluoro-phenyl)-piperidin-1-yl]-[1-(2-methoxy-ethyl)-4-pyridin-2-yl-1H-indol-3-yl]-methanone dihydrochloride], the Ki is 26 nM.
Regarding `NCc1ccc(F)c(C2CCN(C(=O)c3cn(CCOC(F)(F)F)c4cccc(-c5ccncc5)c34)CC2)c1` [Example 78, [4-(5-Aminomethyl-2-fluoro-phenyl)-piperidin-1-yl]-[4-pyridin-4-yl-1-(2-trifluoromethoxy-ethyl)-1H-indol-3-yl]-methanone dihydrochloride], the Ki is 117 nM.

The assay is the same for the next values; noted with them: Tryptase Ki (nM), Ki calculated from IC50: Ki=IC50/(1+[Substrate]/Km); 0.5 mM substrate, room temperature.
In the case of `COCCn1cc(C(=O)N2CCC(c3cc(CN)ccc3F)CC2)c2c(OC(F)(F)F)cccc21` [Example 54, [4-(5-Aminomethyl-2-fluoro-phenyl)-piperidin-1-yl]-[1-(2-methoxy-ethyl)-4-trifluoromethoxy-1H-indol-3-yl]-methanone hydrochloride], the Ki was 96 nM.
With `COCCn1cc(C(=O)N2CCC(c3cc(CN)ccc3F)CC2)c2c(CCC(C)(C)O)cccc21` [Example 55, [4-(5-Aminomethyl-2-fluoro-phenyl)-piperidin-1-yl]-[4-(3-hydroxy-3-methyl-butyl)-1-(2-methoxy-ethyl)-1H-indol-3-yl]-methanone hydrochloride], the Ki was 72 nM.
`CCOc1cccc2c1c(C(=O)N1CCC(c3cc(CN)ccc3F)CC1)cn2CCOC` [Example 57, [4-(5-Aminomethyl-2-fluoro-phenyl)-piperidin-1-yl]-[4-ethoxy-1-(2-methoxy-ethyl)-1H-indol-3-yl]-methanone hydrochloride]: the inhibition constant (Ki) is 54 nM.
On the same count and under the same terms, under `COCCn1cc(C(=O)N2CCC(c3cc(CN)ccc3F)CC2)c2c(OC3CC3)cccc21` [Example 58, [4-(5-Aminomethyl-2-fluoro-phenyl)-piperidin-1-yl]-[4-cyclopropoxy-1-(2-methoxy-ethyl)-1H-indol-3-yl]-methanone hydrochloride] stands 108 nM; under `COCCn1cc(C(=O)N2CCC(c3cc(CN)ccc3F)CC2)c2c(-c3ccccc3)cccc21` [Example 60, [4-(5-Aminomethyl-2-fluoro-phenyl)-piperidin-1-yl]-[1-(2-methoxy-ethyl)-4-phenyl-1H-indol-3-yl]-methanone hydrochloride], 22 nM; under `COCCn1cc(C(=O)N2CCC(c3cc(CN)ccc3F)CC2)c2c(-c3cccc(F)c3)cccc21` [Example 63, [4-(5-Aminomethyl-2-fluoro-phenyl)-piperidin-1-yl]-[4-(3-fluoro-phenyl)-1-(2-methoxyethyl)-1H-indol-3-yl]-methanone hydrochloride], 46 nM.
`COCCn1cc(C(=O)N2CCC(c3cc(CN)ccc3F)CC2)c2c(-c3cccs3)cccc21` [Example 64, [4-(5-Aminomethyl-2-fluoro-phenyl)-piperidin-1-yl]-[1-(2-methoxy-ethyl)-4-thiophen-2-yl-1H-indol-3-yl]-methanone hydrochloride]: the inhibition constant Ki was 39 nM.
As for `COCCn1cc(C(=O)N2CCC(c3cc(CN)ccc3F)CC2)c2c(-c3cc(Cl)cc(Cl)c3)cccc21` [Example 66, 4-(5-Aminomethyl-2-fluoro-phenyl)-piperidin-1-yl]-[4-(3,5-dichloro-phenyl)-1-(2-methoxy-ethyl)-1H-indol-3-yl]-methanone hydrochloride], the Ki is 164 nM.
Turning to `CCCn1cc(-c2cccc3c2c(C(=O)N2CCC(c4cc(CN)ccc4F)CC2)cn3CCOC)cn1` [Example 67, [4-(5-Aminomethyl-2-fluoro-phenyl)-piperidin-1-yl]-[1-(2-methoxy-ethyl)-4-(1-propyl-1H-pyrazol-4-yl)-1H-indol-3-yl]-methanone hydrochloride], the Ki was 12 nM.
Turning to `COCCn1cc(C(=O)N2CCC(c3cc(CN)ccc3F)CC2)c2c(OC(C)C)cccc21` [Example 68, [4-(5-Aminomethyl-2-fluoro-phenyl)-piperidin-1-yl]-[4-isopropoxy-1-(2-methoxy-ethyl)-1H-indol-3-yl]-methanone hydrochloride], the inhibition constant Ki was 35 nM.
Turning to `COCCn1cc(C(=O)N2CCC(c3cc(CN)ccc3F)CC2)c2c(-c3ccc(OC(F)(F)F)cc3)cccc21` [Example 69, [4-(5-Aminomethyl-2-fluoro-phenyl)-piperidin-1-yl]-[1-(2-methoxy-ethyl)-4-(4-trifluoromethoxy-phenyl)-1H-indol-3-yl]-methanone hydrochloride], the inhibitory constant (Ki) is 400 nM.
As to `COCCn1cc(C(=O)N2CCC(c3cc(CN)ccc3F)CC2)c2c(-c3ccc(OC)cc3)cccc21` [Example 70, [4-(5-Aminomethyl-2-fluoro-phenyl)-piperidin-1-yl]-[1-(2-methoxy-ethyl)-4-(4-methoxy-phenyl)-1H-indol-3-yl]-methanone hydrochloride], the Ki is 21 nM.
`COCCn1cc(C(=O)N2CCC(c3cc(CN)ccc3F)CC2)c2c(-c3ccc(F)cc3)cccc21` [Example 71, [4-(5-Aminomethyl-2-fluoro-phenyl)-piperidin-1-yl]-[4-(4-fluoro-phenyl)-1-(2-methoxy-ethyl)-1H-indol-3-yl]-methanone hydrochloride]: the inhibitory constant (Ki) is 49 nM.
Consider `COCCn1cc(C(=O)N2CCC(c3cc(CN)ccc3F)CC2)c2c(-c3cccc(O)c3)cccc21` [Example 72, [4-(5-Aminomethyl-2-fluoro-phenyl)-piperidin-1-yl]-[4-(3-hydroxy-phenyl)-1-(2-methoxy-ethyl)-1H-indol-3-yl]-methanone hydrochloride], for which the inhibition constant Ki was 13 nM.
Same read-out and setting: under `COCCn1cc(C(=O)N2CCC(c3cc(CN)ccc3F)CC2)c2c(N)cccc21` [Example 75, [4-(5-Aminomethyl-2-fluoro-phenyl)-piperidin-1-yl]-[4-amino-1-(2-methoxy-ethyl)-1H-indol-3-yl]-methanone hydrochloride] stands 59 nM.
Regarding `CNc1cccc2c1c(C(=O)N1CCC(c3cc(CN)ccc3F)CC1)cn2CCOC` [Example 76, [4-(5-Aminomethyl-2-fluoro-phenyl)-piperidin-1-yl]-[4-methylamino-1-(2-methoxy-ethyl)-1H-indol-3-yl]-methanone hydrochloride], the inhibitory constant (Ki) was 211 nM.
The same measure, in the same setting: under `COCCn1cc(C(=O)N2CCC(c3cc(CN)ccc3F)CC2)c2c(N(C)C)cccc21` [Example 77, [4-(5-Aminomethyl-2-fluoro-phenyl)-piperidin-1-yl]-[4-dimethylamino-1-(2-methoxy-ethyl)-1H-indol-3-yl]-methanone hydrochloride] stands 57 nM; under `NCc1ccc(F)c(C2CCN(C(=O)c3cn(CCOC(F)(F)F)c4cccc(Br)c34)CC2)c1` [Example 79, 4-(5-Aminomethyl-2-fluoro-phenyl)-piperidin-1-yl]-[4-bromo-1-(2-trifluoromethoxy-ethyl)-1H-indol-3-yl]-methanone hydrochloride], 935 nM.
